In article PMC6934184, “Selective DNA-PKcs inhibition extends the therapeutic index of localized radiotherapy and chemotherapy” (The Journal of Clinical Investigation, 2019):

Biological target: T1, CSNK1E (CK1 epsilon) (Homo sapiens, UniProt P49674)
T1 construct: purchased Thermo Fisher Scientific (Life Technologies) SelectScreen
Assay: SelectScreen Z'LYTE
Format: biochemical
Outline: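 NU5455 was profiled across the SelectScreen Broad panel of kinase activity and binding assays. Z'LYTE reactions such as CSF1R ran at apparent Km ATP, while the Adapta CAMK1 assay used ATP listed as 10. Values are given as percent.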

T1 sequence (P49674 whole entry): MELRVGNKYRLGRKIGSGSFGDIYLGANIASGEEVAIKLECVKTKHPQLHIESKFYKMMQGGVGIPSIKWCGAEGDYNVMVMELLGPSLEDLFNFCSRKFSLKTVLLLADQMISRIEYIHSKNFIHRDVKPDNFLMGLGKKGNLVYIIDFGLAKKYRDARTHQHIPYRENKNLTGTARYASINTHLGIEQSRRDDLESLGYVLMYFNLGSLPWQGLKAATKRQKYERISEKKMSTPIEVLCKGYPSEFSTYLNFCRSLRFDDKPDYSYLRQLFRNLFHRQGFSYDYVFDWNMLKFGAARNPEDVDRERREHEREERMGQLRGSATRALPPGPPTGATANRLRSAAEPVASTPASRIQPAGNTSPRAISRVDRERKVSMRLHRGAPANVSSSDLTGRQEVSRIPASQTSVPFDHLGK

CN(C(=O)CN1CCOCC1)c1ccc2sc3c(-c4cccc5c(=O)cc(N6CC7CCC(C6)O7)oc45)cccc3c2c1 [NU5455]
inhibition at 1 µM: -10.9%
